This note sets out measurements from PMC8533253, “Bis-thiobarbiturates as Promising Xanthine Oxidase Inhibitors: Synthesis and Biological Evaluation” (Biomedicines, 2021).

One data set has as its target T1, Xanthine oxidase (XO) (Bos taurus, UniProt P80457).
T1 construct: purchased Sigma-Aldrich X4875
As to the kind of experiment: XO inhibitory assay (spectrophotometric quantification of uric acid formation at 295 nm). The format is biochemical. Conditions: for inhibition at 30 µM / inhibition at 5 µM: read-out: XO inhibition (%). As to the method:
XO inhibitory and antioxidant assays were performed in triplicate while antiproliferative assay was conducted in quadruplicate. For each assay, at least two independent experiments were performed. An initial screening at the concentration of 30 μM for all compounds under study was performed in each in vitro study. […] Half-maximal inhibitory concentration (IC50) studies were performed for drugs used as a reference and for the most promising bis-thiobarbiturate in XO inhibitory, antioxidant, and cytotoxicity assays.
The XO inhibitory activity was evaluated by spectrophotometric quantification of uric acid formation. The 50 mM dihydrogen phosphate buffer (pH 7.4) was used to dilute all solutions. For each assay performed, 50 μL of the test solution and 50 μL of the 0.1 U/mL XO (Sigma-Aldrich X4875, St. Louis, MO, USA) solution were added in each well of an Elisa microplate (96 wells) followed by 5 min of incubation at 37 °C. […] The reaction started with the addition of 150 μL of a xanthine solution (420 μM). The absorbance was recorded at a wavelength of 295 nm every minute for 10 min. To obtain only the absorbance associated with uric acid, a solution consisting of 50 μL of the test solution, 150 μL of the xanthine solution, and 50 μL of buffer were used as blank. […] For each compound, the percentage of enzyme inhibition was calculated according to the following formula:% of XO inhibition = [1 − (ABSsample − ABSblank of sample)/ABSnegative control] × 100
(§1) All in vitro results are expressed as mean values ± standard deviation (SD) of at least two independent determinations. The difference between groups was analyzed for each assay by Student’s t-test. The IC50 values were calculated by sigmoidal fitting analysis considering a 95% confidence interval.

The nature of data set [1]: Antioxidant assay, DPPH method. The settings on record: 60 min. The protocol: (§2) XO inhibitory and antioxidant assays were performed in triplicate while antiproliferative assay was conducted in quadruplicate. For each assay, at least two independent experiments were performed. An initial screening at the concentration of 30 μM for all compounds under study was performed in each in vitro study. A second screening at 5 μM was performed for compounds that originated an inhibitory potential higher than 80% for the XO activity at 30 μM. Half-maximal inhibitory concentration (IC50) studies were performed for drugs used as a reference and for the most promising bis-thiobarbiturate in XO inhibitory, antioxidant, and cytotoxicity assays.
Antioxidant potential was spectrophotometrically evaluated by the 2,2-diphenyl-1-picrylhydrazyl (DPPH, Sigma-Aldrich, St. Louis, MO, USA) method. All solutions and dilutions were prepared in 99.5% ethanol before each experiment. For each assay, 100 μL of the test solution and 100 μL of DPPH solution (0.2 mM) were added to each well of a 96 wells Elisa microplate. […] After 60 min of incubation in dark at rt, the capacity of each compound to reduce DPPH was followed by measuring the absorbance at 517 nm. Ethanol was used as a negative control and Trolox as the positive control. To discount the absorbance of each compound at 517 nm, a blank was performed with 100 μL of each test compound and 100 μL of ethanol. The antioxidant capacity of each sample was calculated according to the following formula:% DPPH scavenging = [1 − (ABSsample − ABSblank of sample)/ABSnegative control] × 100
as §1

Data set [2] can be described thus: Cytotoxicity assay (MTT) on NHDF. Format: cell-based, human. The settings on record: human, NHDF cells (non-tumor human dermal fibroblasts), 72 h, MTT; for viability at 72 h, 30 µM: read-out: Cytotoxicity (% cell viability at 30 µM) NHDF. The protocol:
as §2
(§3) The cytotoxic potential of the compounds being studied was evaluated by quantifying the extent of the reduction of 3-(4,5-dimethylthiazol-2-yl)-2,5-diphenyltetrazolium bromide (MTT, VWR, Radnor, PA, USA) on tumor cell lines of the colon (Caco-2) and breast (MCF-7) adenocarcinoma and non-tumor human dermal fibroblasts (NHDF). All cell lines were obtained from the American Type Culture Collection (ATCC, Manassas, VA, USA) and were maintained in 75 cm^2 culture flasks in a humidified air incubator with 5% CO2 at 37 °C. NHDF cells have grown in RPMI 1640 medium (Sigma-Aldrich, St. Louis, MO, USA) supplemented with 10% fetal bovine serum (FBS), 10 mM 4-(2-hydroxyethyl)-1-piperazineethanesulfonic acid (HEPES), 2 mM L-glutamine, 1 mM sodium pyruvate, and 1% antibiotic/antimycotic (Ab: 10,000 units/mL penicillin G, […] streptomycin and 25 μg/mL amphotericin B). MCF-7 cells were cultured in high-glucose Dulbecco’s modified Eagle medium (DMEM, Sigma-Aldrich, St. Louis, MO, USA) supplemented with 10% FBS, and 1% Ab. The Caco-2 cell line was cultured in a high glucose DMEM supplemented with 20% FBS and 1% of the antibiotic mixture (Sp: 10,000 units/mL penicillin G and […] of streptomycin). For the assay, cells were seeded in 96-well plates (2 × 10^4 cells/mL) in the culture medium. After 48 h of adherence, cells were treated with the test solutions and incubated for 72 h. […] Untreated cells were used as a negative control and 5-FU as the positive control. Following incubation, the medium was removed and replaced with a fresh incomplete culture medium (without FBS and Ab or Sp) and MTT solution [5 mg/mL in phosphate buffer saline (PBS)]. After further incubation for 4 h at 37 °C, the medium with MTT was removed, formazan crystals were dissolved in DMSO, and the absorbance was read at 570 nm. Results were expressed as the relative cell proliferation in comparison with the negative control cells.
as §1

Data set [3] can be described thus: Cytotoxicity/antiproliferative assay (MTT) on Caco-2. Conditions: human, read-out: Cytotoxicity (% cell viability at 30 µM) Caco-2. The format is cell-based. The protocol:
as §2, §3, §1

Data set [4] can be described thus: Cytotoxicity/antiproliferative assay (MTT) on MCF-7. The format is cell-based. Conditions: human, MCF-7 cells (breast adenocarcinoma), read-out: Cytotoxicity (% cell viability at 30 µM) MCF-7. As to the method:
as §2, §3, §1

Data set [5] has as its system NHDF cells (non-tumor human dermal fibroblasts). As to the kind of experiment: Cytotoxicity assay (MTT) on NHDF. Format: cell-based. The protocol:
as §2, §3, §1

T1 sequence (P80457 whole entry): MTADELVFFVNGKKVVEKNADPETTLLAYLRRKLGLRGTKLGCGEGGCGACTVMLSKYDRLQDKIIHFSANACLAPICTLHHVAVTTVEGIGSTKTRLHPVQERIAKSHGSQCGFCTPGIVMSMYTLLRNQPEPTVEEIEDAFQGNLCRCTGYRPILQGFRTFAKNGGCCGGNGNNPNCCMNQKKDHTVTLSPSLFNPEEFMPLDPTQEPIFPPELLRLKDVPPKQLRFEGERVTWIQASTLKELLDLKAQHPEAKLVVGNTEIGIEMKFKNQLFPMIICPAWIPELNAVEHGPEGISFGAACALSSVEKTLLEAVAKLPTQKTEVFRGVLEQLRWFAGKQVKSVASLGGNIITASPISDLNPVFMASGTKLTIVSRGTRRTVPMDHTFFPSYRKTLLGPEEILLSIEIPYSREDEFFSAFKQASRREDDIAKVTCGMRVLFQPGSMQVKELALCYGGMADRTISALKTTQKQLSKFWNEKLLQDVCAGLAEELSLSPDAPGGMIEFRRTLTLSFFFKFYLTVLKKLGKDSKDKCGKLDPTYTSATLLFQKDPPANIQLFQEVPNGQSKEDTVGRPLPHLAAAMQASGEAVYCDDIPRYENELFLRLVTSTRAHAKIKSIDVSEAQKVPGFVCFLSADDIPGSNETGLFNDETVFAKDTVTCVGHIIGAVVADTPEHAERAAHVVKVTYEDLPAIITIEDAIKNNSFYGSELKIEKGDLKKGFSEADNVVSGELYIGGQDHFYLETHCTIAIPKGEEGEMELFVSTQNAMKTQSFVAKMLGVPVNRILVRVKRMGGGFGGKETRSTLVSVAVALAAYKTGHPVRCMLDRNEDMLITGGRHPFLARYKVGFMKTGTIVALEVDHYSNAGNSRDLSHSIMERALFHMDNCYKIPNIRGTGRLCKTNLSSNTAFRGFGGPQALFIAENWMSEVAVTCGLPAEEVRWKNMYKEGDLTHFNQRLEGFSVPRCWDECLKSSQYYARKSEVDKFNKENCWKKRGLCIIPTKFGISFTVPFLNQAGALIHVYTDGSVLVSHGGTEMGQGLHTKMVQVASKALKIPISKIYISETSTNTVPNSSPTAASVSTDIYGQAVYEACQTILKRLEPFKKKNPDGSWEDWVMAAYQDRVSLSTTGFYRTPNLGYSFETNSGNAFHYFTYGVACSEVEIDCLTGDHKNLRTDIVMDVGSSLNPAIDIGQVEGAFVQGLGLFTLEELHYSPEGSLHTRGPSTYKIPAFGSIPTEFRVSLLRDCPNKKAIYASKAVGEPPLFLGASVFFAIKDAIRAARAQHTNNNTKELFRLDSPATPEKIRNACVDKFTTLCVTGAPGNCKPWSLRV

The molecule `CCn1c(O)c(C(c2cc(O)ccc2[N+](=O)[O-])c2c(O)n(CC)c(=S)n(CC)c2=O)c(=O)n(CC)c1=S` [Compound 16, 5,5′-((5-Hydroxy-2-nitrophenyl)methylene)bis(1,3-diethyl-6-hydroxy-2-thioxo-2,3-dihydropyrimidin-4(1H)-one)] came in with a melting point of 167 to 169 °C. Also, on Xanthine oxidase (XO), the inhibition at 30 µM was 61.4%. Besides, the “DPPH (% scavenging at 30 µM)” value in data set [1] was 31.35 ± 0.91%. For the same molecule, the viability at 72 h, 30 µM in data set [2] was determined as 60.7 ± 1.72%. In data set [3], the viability at 72 h, 30 µM is 95.4 ± 3.3%. In data set [4], the viability at 72 h, 30 µM amounted to 91.1 ± 2%.

Take `CCn1c(O)c(C(c2ccc([N+](=O)[O-])cc2)c2c(O)n(CC)c(=S)n(CC)c2=O)c(=O)n(CC)c1=S` [Compound 6, 5,5′-((4-Nitrophenyl)methylene)bis(1,3-diethyl-6-hydroxy-2-thioxo-2,3-dihydropirimidin-4(1H)-one)]: the melting point lay within 202 to 204 °C. For the same molecule, at Xanthine oxidase (XO), the inhibition at 5 µM came out at 56.8% and the inhibition at 30 µM was 92.2%. Further, the “DPPH (% scavenging at 30 µM)” value in data set [1] is 34.99 ± 1.32%. In data set [2], the viability at 72 h, 30 µM was 99.8 ± 5.43%. Also, the viability at 72 h, 30 µM in data set [3] is 100 ± 4.45%. In addition, the viability at 72 h, 30 µM in data set [4] was determined as 91.7 ± 1.48%.

On to `CCn1c(O)c(C(c2ccc(C#N)cc2)c2c(O)n(CC)c(=S)n(CC)c2=O)c(=O)n(CC)c1=S` [Compound 5, 4-(Bis(1,3-diethyl-6-hydroxy-4-oxo-2-thioxo-1,2,3,4-tetrtahydropyrimidin-5-yl)methyl)benzonitrile], for which the melting point lay within 199 to 200 °C. On Xanthine oxidase (XO), the inhibition at 5 µM worked out at 52.9% and the inhibition at 30 µM was determined as 86.1%. Further, the “DPPH (% scavenging at 30 µM)” value in data set [1] is listed as 34.76 ± 1.42%. Further, in data set [2], the viability at 72 h, 30 µM came to 86.5 ± 5.92%. In addition, the viability at 72 h, 30 µM in data set [3] came to 62.5 ± 11.9%. Moreover, in data set [4], the viability at 72 h, 30 µM was 90.7 ± 4.06%.

`CCn1c(O)c(C(c2ccc(N(C)C)cc2[N+](=O)[O-])c2c(O)n(CC)c(=S)n(CC)c2=O)c(=O)n(CC)c1=S` [Compound 14, 5,5′-((4-(Dimethylamino)-2-nitrophenyl)methylene)bis(1,3-diethyl-6-hydroxy-2-thioxo-2,3-dihydropyrimidin-4(1H)-one)] gave a melting point of 143 to 145 °C. Moreover, on Xanthine oxidase (XO), the inhibition at 5 µM came to 56.3 ± 1.21% and the inhibition at 30 µM was 90.7 ± 0.71%. In data set [1], the “DPPH (% scavenging at 30 µM)” value turned out to be 28.04 ± 0.25%. For the same molecule, the viability at 72 h, 30 µM in data set [2] stood at 80.1 ± 7.69%. In data set [3], the viability at 72 h, 30 µM is 97.2 ± 2.97%. Besides, the viability at 72 h, 30 µM in data set [4] came out at 88.1 ± 3.25%.

For `CCn1c(O)c(C(c2ccccc2)c2c(O)n(CC)c(=S)n(CC)c2=O)c(=O)n(CC)c1=S` [Compound 3, 5,5′-(Phenylmethylene)bis(1,3-diethyl-6-hydroxy-2-thioxo-2,3-dihydropyrimidin-4(1H)-one)], the melting point lay within 177 to 179 °C. In addition, on Xanthine oxidase (XO), the inhibition at 5 µM turned out to be 10.4% and the inhibition at 30 µM was found to be 80.2%. For the same molecule, the “DPPH (% scavenging at 30 µM)” value in data set [1] amounted to 34.58 ± 0.96%. Besides, the viability at 72 h, 30 µM in data set [2] was 88.7 ± 1.4%. For the same molecule, the viability at 72 h, 30 µM in data set [3] was determined as 91.2 ± 9.87%. Further, the viability at 72 h, 30 µM in data set [4] is 90 ± 5.33%.

Turning to `CCn1c(O)c(C(c2ccc(Br)cc2)c2c(O)n(CC)c(=S)n(CC)c2=O)c(=O)n(CC)c1=S` [Compound 11, 5,5′-((4-Bromophenyl)methylene)bis(1,3-diethyl-6-hydroxy-2-thioxo-2,3-dihydropyrimidin-4(1H)-one)], on Xanthine oxidase (XO), the IC50 came to 1.79 ± 0.07 µM, the inhibition at 5 µM stood at 80.9% and the inhibition at 30 µM stood at 95.7%. Also, in data set [1], the “DPPH (% scavenging at 30 µM)” value was determined as 57.25 ± 0.98%. Further, the IC50 in data set [1] (read-out: DPPH Scavenging IC50) was 24.7 ± 0.88 µM. For the same molecule, in data set [2], the viability at 72 h, 30 µM is 94.3 ± 7.84% and the IC50 at 72 h was determined as 93.2 ± 5.54 µM. In data set [5] (NHDF cytotoxicity versus DPPH scavenging), the “selectivity index for DPPH scavenging activity” value is 3.77. In addition, in data set [5] (NHDF cytotoxicity versus XO inhibition), the “selectivity index for XO inhibition” value worked out at 52.04. In addition, in data set [3], the viability at 72 h, 30 µM was determined as 72.3 ± 9.76%. The viability at 72 h, 30 µM in data set [4] was 92.2 ± 3.68%.

In the case of `CCn1c(O)c(C(c2ccc(NC(C)=O)cc2)c2c(O)n(CC)c(=S)n(CC)c2=O)c(=O)n(CC)c1=S` [Compound 9, N-(4-(Bis(1,3-diethyl-6-hydroxy-4-oxo-2-thioxo-1,2,3,4-tetrahydropyrimidin-5-yl)methyl)phenyl)acetamide], the melting point lay within 178 to 179 °C. Moreover, the inhibition at 30 µM at Xanthine oxidase (XO) came to 45.6%. Moreover, in data set [1], the “DPPH (% scavenging at 30 µM)” value came to 39.63 ± 2.26%. In addition, in data set [2], the viability at 72 h, 30 µM was 81.3 ± 8.87%. Moreover, the viability at 72 h, 30 µM in data set [3] amounted to 67.5 ± 9.4%. For the same molecule, in data set [4], the viability at 72 h, 30 µM was found to be 90.2 ± 5.7%.
